Measurements taken from PMC8505367 (Clinical Pharmacokinetics, 2021).

Key:
[1] = reducing gastric pH with omeprazole; cited from earlier work
plasma protein = conditions: cited from earlier work
[2] = format: in vivo, human; conditions: subjects with T2D, N = 55, oral, recommended dosing conditions; geometric mean of typical PK parameter values for each subject
[3] = format: in vivo, human; conditions: oral, post-dose fasting time 120 min, model-derived

- ka (absorption rate) [2]: 2.09 h⁻¹
- Bioavailability, plateau with longer post-dose fasting time [3]: around 1.4%
Compound: CC[C@H](C)[C@H](NC(=O)[C@H](Cc1ccccc1)NC(=O)[C@H](CCC(=O)O)NC(=O)[C@H](CCCCNC(=O)COCCOCCNC(=O)COCCOCCNC(=O)CC[C@H](NC(=O)CCCCCCCCCCCCCCCCC(=O)O)C(=O)O)NC(=O)[C@H](C)NC(=O)[C@H](C)NC(=O)[C@H](CCC(N)=O)NC(=O)CNC(=O)[C@H](CCC(=O)O)NC(=O)[C@H](CC(C)C)NC(=O)[C@H](Cc1ccc(O)cc1)NC(=O)[C@H](CO)NC(=O)[C@H](CO)NC(=O)[C@@H](NC(=O)[C@H](CC(=O)O)NC(=O)[C@H](CO)NC(=O)[C@@H](NC(=O)[C@H](Cc1ccccc1)NC(=O)[C@@H](NC(=O)CNC(=O)[C@H](CCC(=O)O)NC(=O)C(C)(C)NC(=O)[C@@H](N)Cc1cnc[nH]1)[C@@H](C)O)[C@@H](C)O)C(C)C)C(=O)N[C@@H](C)C(=O)N[C@@H](Cc1c[nH]c2ccccc12)C(=O)N[C@@H](CC(C)C)C(=O)N[C@H](C(=O)N[C@@H](CCCNC(=N)N)C(=O)NCC(=O)N[C@@H](CCCNC(=N)N)C(=O)NCC(=O)O)C(C)C [semaglutide]
- Change in semaglutide exposure [1]: small but not clinically relevant increase
- Plasma protein binding (plasma protein): > 99%
